Source: patent US8765803B1, “Rab7 GTPase inhibitors and related methods of treatment” (STC.UNM, priority 2011, dated 2014)
≈ marks a conversion by molar mass, not a printed value. Where “and” joins values, the source holds several entries; their conditions need not be identical. Identical values can stand only once. Like-named read-outs stand apart in the source and are kept apart here.

Assays:
[1] = system: Ras-related GTPases (Cdc42 wt, Rac1wt, Rac1Q61L, Rab2 wt, Rab7 wt, and H-Ras wt); conditions: for Activity for all GTPases tested: multiplex GTPase screen; for Loss in potency across GTPases relative to CID1067700: compared across multiple/all GTPases
Method: The eight GTPases were grouped into two sets: Rab7, H-Ras wild type and its V12 mutant, and Cdc42 and its L61 mutant were assayed in a buffer containing 1 mM EDTA, while Rho, Rac1 and its L61 mutant, and Cdc42 and its L61 mutant were assayed in the same buffer but instead containing 1 mM Mg^2+ with Cdc42 and its mutant being tested in both buffers. Besides 1 mM EDTA or 1 mM Mg^2+, the buffer contained 30 mM HEPES, pH 7.5, 40 mM KCl, 100 mM NaCl, 0.1% (v/v) NP-40 and 1% BSA. For each multiplex reaction, an extra set of beads was included to serve as scavengers to bind any proteins that dissociate from their assigned bead set and thereby reduce interference due to protein dissociation during the assay. […] Briefly, each individual GST-tagged enzyme was incubated with 4 μm glutathione-coated microsphere beads overnight with gentle rotation. The microsphere beads have different red fluorescence dyes incorporated and therefore could be separated by a flow cytometer. The unbound enzyme was removed by sufficient washing with the buffer. The bead sets were then combined and dispensed to 384-well plates at 5 μL/well. For one plate, 0.5 μg each of the enzymes and 4.0×10^4 of each bead were used. Then 100 nL compound was added using Biomek FX followed by the addition of 5 μL/well of BODIPY-FL-GTP (ribose-linked BODIPY). […] The beads were aspirated and delivered with the HyperCyt® instrument and read on CyAnADP flow cytometer. Forward scatter and side scatter was used to define the whole bead population. […] The data was analyzed by the HyperView® software developed by Dr. Bruce Edward at the University of New Mexico.
Briefly, six sets of beads (each with a unique red fluorescence intensity) were individually coated with six representative GST-tagged Ras-related GTPases (Cdc42 wt, Rac1wt, Rac1Q61L, Rab2 wt, Rab7 wt, and H-Ras wt) (FIG. 29A). The individually conjugated beads were then assayed in the presence of individual compounds in the Molecular Libraries Small Molecule Repository using a HyperCyt flow cytometry to identify molecules that altered the binding of fluorescent nucleotide to Ras-family GTPases (36).

U937 cells = experiment: Cytotoxicity of compounds, cell density and viability; assay type: cell-based; conditions: 24 h
Method: U937 cells were grown to a density of 0.4×10^6 cells/mL Compounds were added to a final concentration of 20 μM or otherwise indicated. As a control, cells were treated with DMSO of the same volume. After 24 h incubation, the density and viability of the cells were measured with Countess Cell Counter according to the protocols from the manufacturer.

Rab7 GTPase = target: T1, Rab7 GTPase (UniProt P18067); experiment: Multiplex bead-based flow cytometry dose-response, BODIPY-FL-GTP binding to GST-tagged GTPase; conditions: for EC50: mean of n replicates; for % Res: percent response
T1 construct: fused on or other part: GST tag, used to hold the protein on glutathione beads

[2] = Solubility in PBS and assay media, UV absorbance detection; assay type: physicochemical
Method: Solubility was measured in phosphate buffered saline (PBS) at room temperature (23° C.). PBS by definition is 137 mM NaCl, 2.7 mM KCl, 10 mM sodium phosphate dibasic, 2 mM potassium phosphate monobasic and a pH of 7.4. Detection was based on UV absorbance. […]. Solubility was also assessed in the each of the four media used in the individual assays. […]

Rab7 wt = conditions: previously determined (ref 33); read-out: Equilibrium dissociation constant Kd for wild-type Rab7; cited from earlier work
[3] = Assay format EDTA (1 mM EDTA buffer, 100 nM BODIPY-FL-GTP)
[4] = Assay format Mg (1 mM Mg2+ buffer, 1 nM BODIPY-FL-GTP)
[5] = 23 °C, pH 7.4, aqueous buffer, Solubility
[6] = pH 7.5, aqueous with cosolvent or surfactant or cyclodextrin, Solubility

Compound | Cell viability of U937 cells after treatment (U937 cells; 20 μM) | EC50 (Rab7 GTPase; [3]) | % Res (Rab7 GTPase; Assay format EDTA) | EC50 (Rab7 GTPase; [4]) | % Res (Rab7 GTPase; Assay format Mg) | other results
CC1(C)Cc2c(sc(NC(=O)Cc3ccccc3)c2C(=O)O)CO1 [CID740871, 5,5-dimethyl-2-(2-phenylacetamido)-5,7-dihydro-4H-thieno[2,3-c]pyran-3-carboxylic acid] |  |  |  |  |  | Activity for all GTPases tested [1]: complete loss of activity; Activity for all GTPases tested ([1]; listed as SID 9938117): inactive
COC(=O)c1c(NC(=S)NC(=O)c2ccccc2)sc2c1CC(C)(C)OC2 [CID1251121, Methyl 2-(3-benzoylthioureido)-5,5-dimethyl-5,7-dihydro-4H-thieno[2,3-c]pyran-3-carboxylate] |  |  |  |  |  | Activity for all GTPases tested [1]: complete loss of activity
CC1(C)Cc2c(sc(NC(=S)Nc3ccccc3)c2C(=O)O)CO1 [CID1280844, 5,5-dimethyl-2-(3-phenylthioureido)-5,7-dihydro-4H-thieno[2,3-c]pyran-3-carboxylic acid] |  |  |  |  |  | Activity for all GTPases tested [1]: inactive
CC1Cc2c(sc(NC(=S)NC(=O)c3ccccc3)c2C(=O)O)CO1 (stereo not drawn) [CID46916263, 2-(3-benzoylthioureido)-5-methyl-5,7-dihydro-4H-thieno[2,3-c]pyran-3-carboxylic acid] |  |  |  |  |  | Cell viability of U937 cells after treatment (U937 cells; 100 μM): 94% (100 μM)
CC1(C)Cc2c(sc(NC(=O)NC(=O)c3ccccc3)c2C(=O)O)CO1 [CID46916265, 2-(3-Benzoylureido)-5,5-dimethyl-5,7-dihydro-4H-thieno[2,3-c]pyran-3-carboxylic acid] |  |  |  |  |  | Cell viability of U937 cells after treatment (U937 cells; 100 μM): 98% (100 μM); Loss in potency across GTPases relative to CID1067700 [1]: 35 fold; Loss in potency across GTPases relative to CID1067700 ([1]; listed as SID 99381130): 7 fold
O=C(NC(=S)Nc1sc2c(c1C(=O)O)CCOC2)c1ccccc1 [CID46916266, 2-(3-benzoylthioureido)-5,7-dihydro-4H-thieno[2,3-c]pyran-3-carboxylic acid] |  |  |  |  |  | Cell viability of U937 cells after treatment (U937 cells; 100 μM): 92% (100 μM)
CC1(C)Cc2c(sc(NC(=S)NC(=O)c3cccc(F)c3)c2C(=O)O)CO1 [CID53301930] | 92% | 320 ± 90 nM | 90 ± 6% | 290 ± 190 nM | 39 ± 3% | 
CC1(C)Cc2c(sc(NC(=S)NC(=O)c3ccccc3Br)c2C(=O)O)CO1 [CID53301931, 2-(3-(2-Bromobenzoyl)thioureido)-5,5-dimethyl-5,7-dihydro-4H-thieno[2,3-c]pyran-3-carboxylic acid] | 94% | 430 ± 680 nM | 86 ± 10% | 650 ± 870 nM | 35 ± 4% | solubility [2]: >93 μg/mL,; solubility [2, 5]: > 93 µg/mL and > 198 µM; solubility ([2]; pH 7.5): >93 μg/mL,; solubility ([2]; pH 7.5, read-out: Solubility): >198 µM; solubility ([2]; read-out: Solubility): >198 µM
COc1ccc(C(=O)NC(=S)Nc2sc3c(c2C(=O)O)CC(C)(C)OC3)cc1 [CID53301932, 2-(3-(4-Methoxybenzoyl)thioureido)-5,5-dimethyl-5,7-dihydro-4H-thieno[2,3-c]pyran-3-carboxylic acid] | 96% | 140 ± 70 nM | 94 ± 14% | 140 ± 110 nM | 54 ± 2% | 
CC1(C)Cc2c(sc(NC(=S)NC(=O)c3ccc(Br)cc3)c2C(=O)O)CO1 [CID53301933] | 93% | 300 ± 180 nM | 93 ± 6% | 270 ± 220 nM | 41 ± 6% | 
COc1cccc(C(=O)NC(=S)Nc2sc3c(c2C(=O)O)CC(C)(C)OC3)c1 [CID53301934, 2-(3-(3-Methoxybenzoyl)thioureido)-5,5-dimethyl-5,7-dihydro-4H-thieno[2,3-c]pyran-3-carboxylic acid] | 94% | 150 ± 130 nM | 68 ± 25% | 320 nM | 37% | solubility [2]: 54.5 μg/mL,; solubility [2, 5]: 36.5 µg/mL and 86.8 µM; solubility ([2]; pH 7.5): 29.7 μg/mL,; solubility [2, 6]: 33.8 µg/mL and 80.4 µM; solubility ([2]; pH 7.5, read-out: Solubility): 70.6 µM (≈ 29.7 µg/mL); solubility ([2]; read-out: Solubility): 129.6 µM (≈ 54.5 µg/mL)
CC1(C)Cc2c(sc(NC(=S)NC(=O)c3ccccc3F)c2C(=O)O)CO1 [CID53301935, 2-(3-(2-fluorobenzoyl)thioureido)-5,5-dimethyl-5,7-dihydro-4H-thieno[2,3-c]pyran-3-carboxylic acid] | 96% | 140 ± 160 nM | 97 ± 15% | 170 ± 210 nM | 45 ± 2% | 
CC1(C)Cc2c(sc(NC(=S)NC(=O)c3cccc(Br)c3)c2C(=O)O)CO1 [CID53301936] |  | 2510 ± 2100 nM | 41 ± 0% | > 100000 nM |  | 
CC1(C)CCc2sc(NC(=S)NC(=O)c3ccccc3)c(C(=O)O)c2C1 [CID53301937] | 91% | 66 ± 20 nM | 97 ± 5% | 63 ± 10 nM | 53 ± 1% | 
Cc1ccc(C(=O)NC(=S)Nc2sc3c(c2C(=O)O)CC(C)(C)OC3)cc1 [CID53377395] |  | 140 nM | 102% | 97 nM | 40% | 
CC1(C)Cc2c(sc(NC(=S)NC(=O)C3CCCCC3)c2C(=O)O)CO1 [CID53377396] |  | 810 nM | 89% | 460 nM | 39% | 
COc1ccccc1C(=O)NC(=S)Nc1sc2c(c1C(=O)O)CC(C)(C)OC2 [CID53377397] |  | 1120 nM | 52% |  |  | 
CC1(C)Cc2c(sc(NC(=S)NC(=O)c3cccs3)c2C(=O)O)CO1 [CID53377398] |  | 25 nM | 103% | 25 nM | 56% | 
CC(C)(C)C1Cc2c(sc(NC(=S)NC(=O)c3ccccc3)c2C(=O)O)CO1 (stereo not drawn) [CID53377399] |  | 470 nM | 18% | 220 nM | 47% | 
Cc1cccc(C(=O)NC(=S)Nc2sc3c(c2C(=O)O)CC(C)(C)OC3)c1 [CID53377400] |  | 1160 nM | 93% | 360 nM | 30% | 
CCC1(C)Cc2c(sc(NC(=S)NC(=O)c3ccccc3)c2C(=O)O)CO1 (stereo not drawn) [CID53377401] |  | 37 nM | 109% | 35 nM | 43% | 
CC1(C)Cc2c(sc(NC(=S)NC(=O)c3ccco3)c2C(=O)O)CO1 [CID53377402] |  | 74 nM | 105% | 82 nM | 63% | 
O=C(NC(=S)Nc1sc2c(c1C(=O)O)CC1(CCCC1)OC2)c1ccccc1 [CID53377403] |  | 35 nM | 72% | 33 nM | 56% | 
Cc1ccccc1C(=O)NC(=S)Nc1sc2c(c1C(=O)O)CC(C)(C)OC2 [CID53377404] |  | 410 nM | 95% | 520 nM | 47% | 
CC1(C)Cc2c(sc(NC(=S)NC(=O)c3ccc(F)cc3)c2C(=O)O)CO1 [CID53377405, 2-(3-(4-Fluorobenzoyl)thioureido)-5,5-dimethyl-5,7-dihydro-4H-thieno[2,3-c]pyran-3-carboxylic acid] | 94% | 95 nM | 100% | 77 nM | 39% | solubility [2]: 67.6 μg/mL,; solubility [2, 5]: 85.7 µg/mL and 210 µM; solubility ([2]; pH 7.5): 69.1 μg/mL,; solubility [2, 6]: 98.2 µg/mL and 240 µM; solubility ([2]; pH 7.5, read-out: Solubility): 169.2 µM (≈ 69.1 µg/mL); solubility ([2]; read-out: Solubility): 165.5 µM (≈ 67.6 µg/mL)
BODIPY FL GDP 2′-(or -3′)-O—[N-(2-aminoethyl)urethane] [BODIPY-GDP] |  |  |  |  |  | Kd (Rab7 wt): 40 nM
